{"source": "patent US9181193B2", "about": "“Indenoquinolone compound, preparation method and use thereof” (Second Military Medical University, PLA, priority 2010, dated 2015)", "key": {"[1]": {"system": "Colo205 (human colon cancer cells)", "assay": "MTT in vitro anti-tumor activity test, Colo205", "type": "cell-based", "details": "for Colo205 100 μg/mL IC %: 72 h; for IC50: Homo sapiens, COLO 205, 72 h, read-out: Colo205 IC50"}, "[2]": {"system": "MDA-MB-435 (human breast cancer cells)", "assay": "MTT in vitro anti-tumor activity test, MDA-MB-435", "type": "cell-based", "details": "for IC50: Homo sapiens, MDA-MB-435, 72 h, read-out: MDA-MB-435 IC50; for MDA-MB-435 100 μg/mL IC %: 72 h"}, "[3]": {"system": "human lung cancer cell line A549", "assay": "Anti-tumor activity test in vivo, nude mouse model of A549", "details": "nude mouse model of A549, dose of 1-200 mg/kg weight", "from_the_text": "The activities of some compounds in vivo in the nude mouse model of human lung cancer cell line A549 were detected by using literature methods (WEI Hong. Medical Experiments Zoology. 2nd edition. Chengdu: Sichuan Science and Technology Press, 2001: 595-596)."}, "[4]": {"system": "HepG2 (human hepatoma cells)", "assay": "MTT in vitro anti-tumor activity test, HepG2", "type": "cell-based", "details": "for HepG2 100 μg/mL IC %: 72 h; for IC50: Homo sapiens, HepG2, 72 h, read-out: HepG2 IC50"}, "[5]": {"system": "A549 (human lung cancer cells)", "assay": "MTT in vitro anti-tumor activity test, A549", "type": "cell-based", "details": "for A549 100 μg/mL IC %: 72 h; for IC50: Homo sapiens, A549, 72 h, read-out: A549 IC50"}}, "data": [{"smiles": "COc1ccc2c(c1)C(=O)c1c-2c(OCCN(C)C)nc2ccccc12", "note": "[Compound 1]", "values": [{"measurement": "Colo205 100 μg/mL IC %", "setting": "[1]; Colo205, 100 μg/mL, MTT", "value": 100, "unit": "%"}, {"measurement": "IC50", "setting": "[1]", "value": 0.621, "unit": "µg/mL"}, {"measurement": "IC50", "setting": "[2]", "value": 1, "unit": "µg/mL"}, {"measurement": "MDA-MB-435 100 μg/mL IC %", "setting": "[2]; MDA-MB-435, 100 μg/mL, MTT", "value": 95.81, "unit": "%"}, {"measurement": "anti-tumor activity in vivo", "setting": "[3]", "value": "good anti-tumor activity in vivo"}, {"measurement": "melting point", "value": "116 to 118", "unit": "°C"}, {"measurement": "HepG2 100 μg/mL IC %", "setting": "[4]; HepG2, 100 μg/mL, MTT", "value": 99.40, "unit": "%"}, {"measurement": "IC50", "setting": "[4]", "value": 0.721, "unit": "µg/mL"}, {"measurement": "A549 100 μg/mL IC %", "setting": "[5]; A549, 100 μg/mL, MTT", "value": 100, "unit": "%"}, {"measurement": "IC50", "setting": "[5]", "value": 0.983, "unit": "µg/mL"}]}, {"smiles": "COc1ccc2c(c1)C(=O)c1c-2c(=O)n(CCN(C)C)c2ccccc12", "note": "[Compound 31, 5-(2-dimethylaminoethyl)-9-methoxy-5H-indeno[1,2-c]quinoline-6,11-dione]", "values": [{"measurement": "IC50", "setting": "[1]", "value": 1.2, "unit": "µg/mL"}, {"measurement": "Colo205 100 μg/mL IC %", "setting": "[1]; inhibition at 100 μg/mL, MTT assay, Colo205 cells", "value": 88.35, "unit": "%"}, {"measurement": "IC50", "setting": "[2]", "value": 1.83, "unit": "µg/mL"}, {"measurement": "MDA-MB-435 100 μg/mL IC %", "setting": "[2]; inhibition at 100 μg/mL, MTT assay, MDA-MB-435 cells", "value": 86.09, "unit": "%"}, {"measurement": "melting point", "value": "198 to 200", "unit": "°C"}, {"measurement": "IC50", "setting": "[4]", "value": 0.746, "unit": "µg/mL"}, {"measurement": "HepG2 100 μg/mL IC %", "setting": "[4]; inhibition at 100 μg/mL, MTT assay, HepG2 cells", "value": 90.60, "unit": "%"}, {"measurement": "IC50", "setting": "[5]", "value": 1.72, "unit": "µg/mL"}, {"measurement": "A549 100 μg/mL IC %", "setting": "[5]; inhibition at 100 μg/mL, MTT assay, A549 cells", "value": 93.62, "unit": "%"}]}]}
